Key:
Type in all cases: functional
Conditions in all cases: route oral
Mus musculus [1] = assay: Percentage of the number of platelets for the treated versus mitomycin C(MMC) control group in the MMC-induced thrombocytopenic mice at a dose of 100 mg/kg following peroral administration
Mus musculus [2] = assay: Percentage of the number of platelets for the treated versus mitomycin C(MMC) control group in the MMC-induced thrombocytopenic mice at a dose of 32 mg/kg following peroral administration
Mus musculus [3] = assay: Percentage of the number of platelets for the treated versus mitomycin C(MMC) control group in the MMC-induced thrombocytopenic mice at a dose of 10 mg/kg following peroral administration

| Compound | No. of platelets (Mus musculus [1]) | No. of platelets (Mus musculus [2]) | No. of platelets (Mus musculus [3]) |
| --- | --- | --- | --- |
| Nc1ncc([S+]([O-])c2nccs2)s1 (configuration not stated) | 146% |  |  |
| [O-][S+](c1ccccn1)c1cncs1 (configuration not stated) | 171% | 148% | 124% |
| Nc1ncc([S+]([O-])c2cccc3cccnc23)s1 (configuration not stated) | 188% | 123% | 116% |
| Nc1ncc([S+]([O-])c2ccc3ccccc3n2)s1 (configuration not stated) | 181% | 153% | 138% |
| Cc1ccc2nc([S+]([O-])c3cnc(N)s3)ccc2c1 (configuration not stated) | 146% |  |  |
| Nc1ncc([S+]([O-])c2nc3ccccc3[nH]2)s1 (configuration not stated) | 165% | 112% | 92% |
| Nc1ncc([S+]([O-])c2ccccn2)s1 (configuration not stated) |  | 154% |  |
| Nc1ncc([S+]([O-])c2ncccn2)s1 (configuration not stated) |  | 116% |  |
| Nc1ncc([S+]([O-])c2ccc3cc(F)ccc3n2)s1 (configuration not stated) | 162% |  |  |
| Nc1ncc([S+]([O-])c2cccnc2)s1 (configuration not stated) |  | 115% |  |
| Nc1ncc(S(=O)(=O)c2ccccn2)s1 | 139% | 143% | 94% |
| Nc1ncc(C(=O)c2ccccn2)s1 | 140% |  |  |
| Nc1ncc(Sc2ccccn2)s1 | 147% |  |  |
| Nc1ncc([S+]([O-])c2cnc3ccccc3n2)s1 (configuration not stated) | 131% |  |  |
| Nc1ncc([S+]([O-])c2cccs2)s1 (configuration not stated) | 138% |  |  |
| CNc1ncc([S+]([O-])c2ccccn2)s1 (configuration not stated) | 132% |  |  |
| Nc1ncc([S+]([O-])c2ccc3cccnc3n2)s1 (configuration not stated) |  | 130% |  |
| Cc1nc(N)sc1[S+]([O-])c1ccccn1 (configuration not stated) | 118% |  |  |
| Nc1nnc([S+]([O-])c2ccc3ccccc3n2)s1 (configuration not stated) | 102% |  |  |
| Nc1ccc(S(=O)(=O)c2ccc(N)cc2)cc1 [DAPSONE] | 150% | 125% | 91% |

From ChEMBL document CHEMBL1130959, “Synthesis and effects of novel thiazole derivatives against thrombocytopenia” (1998)
